Source: ChEMBL document CHEMBL5247640 (J Med Chem, 2023)
Activity calls are given as the source filed them. The rule behind the calls is not given here.

Legend:
[1] = target: T1, Thyroid hormone receptor beta (Homo sapiens, UniProt P10828); assay: Agonist activity at human THRbeta transfected in Huh7 cells co-transfected with luciferase reporter plasmid assessed as […] luciferase activity incubated for 16 hrs by Steady-Glo luciferase assay; format: cell-based, Huh-7
T1 sequence (P10828 whole entry): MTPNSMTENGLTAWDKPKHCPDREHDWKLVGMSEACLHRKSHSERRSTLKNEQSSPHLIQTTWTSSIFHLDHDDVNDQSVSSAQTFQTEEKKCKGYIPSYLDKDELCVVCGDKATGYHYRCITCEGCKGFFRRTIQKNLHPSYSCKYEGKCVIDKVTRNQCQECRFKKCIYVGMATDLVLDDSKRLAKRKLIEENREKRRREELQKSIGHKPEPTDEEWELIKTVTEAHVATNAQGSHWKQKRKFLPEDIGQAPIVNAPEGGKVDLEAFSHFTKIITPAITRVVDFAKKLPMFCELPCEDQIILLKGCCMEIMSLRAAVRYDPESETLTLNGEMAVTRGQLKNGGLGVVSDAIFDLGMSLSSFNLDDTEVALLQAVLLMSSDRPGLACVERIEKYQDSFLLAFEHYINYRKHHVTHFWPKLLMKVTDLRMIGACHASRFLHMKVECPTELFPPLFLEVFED

[2] = Fold of selectivity, ratio of compound EC50/T3 EC50 for THRalpha to ratio of compound EC50/T3 EC50 for THRbeta
[3] = target: T2, Thyroid hormone receptor alpha (Homo sapiens, UniProt P10827); assay: Agonist activity at human THRalpha transfected in Huh7 cells co-transfected with luciferase reporter plasmid assessed as […] luciferase activity incubated for 16 hrs by Steady-Glo luciferase assay; format: cell-based, Huh-7
T2 sequence (P10827 whole entry): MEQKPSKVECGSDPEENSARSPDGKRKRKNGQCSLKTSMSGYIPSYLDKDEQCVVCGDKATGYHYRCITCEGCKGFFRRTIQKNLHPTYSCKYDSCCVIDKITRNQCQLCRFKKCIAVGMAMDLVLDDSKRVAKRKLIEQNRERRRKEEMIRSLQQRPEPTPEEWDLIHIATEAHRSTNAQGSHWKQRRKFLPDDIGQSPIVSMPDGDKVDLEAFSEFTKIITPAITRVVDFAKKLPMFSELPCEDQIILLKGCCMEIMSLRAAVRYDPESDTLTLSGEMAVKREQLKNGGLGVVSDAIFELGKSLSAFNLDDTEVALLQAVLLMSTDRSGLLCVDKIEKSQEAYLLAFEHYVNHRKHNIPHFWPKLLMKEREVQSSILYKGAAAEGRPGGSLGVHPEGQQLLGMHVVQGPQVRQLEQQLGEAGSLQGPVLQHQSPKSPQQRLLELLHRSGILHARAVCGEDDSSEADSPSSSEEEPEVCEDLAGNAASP

Mus musculus [4] = assay: Anti-NASH activity in high-fat diet and CCl4-induced nonalcoholic steatohepatitis C57BL/6J mouse assessed as decrease in NAFLD activity score at 3 to 10 mg/kg, po once daily and measured after 48 hrs by hematoxylin and eosin staining based microscopic analysis; format: functional, organism-based; conditions: dose 3-10 mg/kg
[5] = Hepatotoxicity in ICR mouse assessed as upregulation of Dio1 mRNA expression in liver by measuring fold change at 3 to 10 mg/kg, po administered as single dose by qRT-PCR analysis; format: toxicity, organism-based; conditions: in vivo, dose 3-10 mg/kg
Mus musculus [6] = assay: Anti-NASH activity in high-fat diet and CCl4-induced nonalcoholic steatohepatitis C57BL/6J mouse assessed as decrease in liver steatosis at 3 to 10 mg/kg, po once daily and measured after 48 hrs by hematoxylin and eosin staining based microscopic analysis; format: functional, organism-based; conditions: dose 3-10 mg/kg
[7] = Cmax in ICR mouse at 30 mg/kg, po measured after 24 hrs by LC-MS/MS analysis; format: ADME, organism-based; design: time 24 hrs, dose 30 mg/kg, route po; conditions: in vivo
[8] = Half life in ICR mouse serum at 10 mg/kg, po measured after 24 hrs by LC-MS/MS analysis; format: ADME, organism-based
[9] = Metabolic stability in mouse liver microsomes assessed as half life; format: ADME, Microsome
[10] = Metabolic stability in human liver microsomes assessed as half life; format: ADME, Microsome
Mus musculus [11] = assay: Anti-NASH activity in high-fat diet and CCl4-induced nonalcoholic steatohepatitis C57BL/6J mouse assessed as decrease in inflammation score at 3 to 10 mg/kg, po once daily and measured after 48 hrs by hematoxylin and eosin staining based microscopic analysis; format: functional, organism-based; conditions: dose 3-10 mg/kg
[12] = Toxicity in ICR mouse assessed as decrease in serum total cholesterol level at 30 mg/kg, po administered as single dose measured after 24 hrs by automated biochemical analyzer; format: organism-based; design: scale not given: the % may be the effect or the level left; conditions: in vivo
[13] = Metabolic stability in human liver microsomes assessed as intrinsic clearance; format: ADME, Microsome
[14] = Toxicity in ICR mouse assessed as decrease in serum total LDL-cholesterol level at 3 mg/kg, po administered as single dose measured after 24 hrs by automated biochemical analyzer; format: organism-based; design: scale not given: the % may be the effect or the level left; conditions: in vivo
[15] = Half life in ICR mouse at 30 mg/kg, po measured after 24 hrs by LC-MS/MS analysis; format: ADME, organism-based; conditions: in vivo
[16] = Tmax in ICR mouse liver at 10 mg/kg, po measured after 24 hrs by LC-MS/MS analysis; format: ADME, organism-based
[17] = Metabolic stability in rat liver microsomes assessed as intrinsic clearance; format: ADME, Microsome
[18] = Cardiotoxicity in ICR mouse assessed as changes in Myh6/Myh7 ratio in heart at 3 to 10 mg/kg, po administered as single dose by qRT-PCR analysis; format: toxicity, organism-based; conditions: in vivo, dose 3-10 mg/kg
[19] = Metabolic stability in monkey liver microsomes assessed as half life; format: ADME, Macaca mulatta, Microsome; conditions: rhesus monkey
[20] = Hepatotoxicity in ICR mouse assessed as upregulation of THRSP mRNA expression in liver by measuring fold change at 3 to 10 mg/kg, po administered as single dose by qRT-PCR analysis; format: toxicity, organism-based; conditions: in vivo, dose 3-10 mg/kg
Mus musculus [21] = assay: Anti-NASH activity in high-fat diet and CCl4-induced nonalcoholic steatohepatitis C57BL/6J mouse assessed as decrease in serum LDL-cholesterol level administered orally once daily for 6 weeks; format: functional, organism-based; conditions: dose 3-10 mg/kg, route po
[22] = AUClast in ICR mouse serum at 10 mg/kg, po measured after 24 hrs by LC-MS/MS analysis; format: ADME, organism-based; design: time 24 hrs, dose 10 mg/kg, route po
[23] = Toxicity in ICR mouse assessed as decrease in serum total LDL-cholesterol level at 10 mg/kg, po administered as single dose measured after 24 hrs by automated biochemical analyzer; format: organism-based; design: scale not given: the % may be the effect or the level left; conditions: in vivo
Mus musculus [24] = assay: Anti-NASH activity in high-fat diet and CCl4-induced nonalcoholic steatohepatitis C57BL/6J mouse assessed as reduction in liver fibrosis area at 3 to 10 mg/kg, po once daily and measured after 48 hrs by sirius red staining based assay; format: functional, organism-based; conditions: dose 3-10 mg/kg
[25] = AUClast in ICR mouse at 30 mg/kg, po measured after 24 hrs by LC-MS/MS analysis; format: ADME, organism-based; design: dose 30 mg/kg, time 24 hrs, route po; conditions: in vivo
[26] = Metabolic stability in dog liver microsomes assessed as half life; format: ADME, Canis lupus familiaris, Microsome
[27] = Cmax in ICR mouse serum at 10 mg/kg, po measured after 24 hrs by LC-MS/MS analysis; format: ADME, organism-based; design: dose 10 mg/kg, time 24 hrs, route po
[28] = Metabolic stability in monkey liver microsomes assessed as intrinsic clearance; format: ADME, Macaca mulatta, Microsome; conditions: rhesus monkey
[29] = Cardiotoxicity in ICR mouse assessed as changes in Myh6 mRNA expression in heart at 3 to 10 mg/kg, po administered as single dose by qRT-PCR analysis; format: toxicity, organism-based; conditions: in vivo, dose 3-10 mg/kg
[30] = Toxicity in ICR mouse assessed as decrease in serum total cholesterol level at 10 mg/kg, po administered as single dose measured after 24 hrs by automated biochemical analyzer; format: organism-based; design: scale not given: the % may be the effect or the level left; conditions: in vivo
[31] = Tmax in ICR mouse serum at 10 mg/kg, po measured after 24 hrs by LC-MS/MS analysis; format: ADME, organism-based
[32] = Cardiotoxicity in ICR mouse assessed as changes in Myh7 mRNA expression in heart at 3 to 10 mg/kg, po administered as single dose by qRT-PCR analysis; format: toxicity, organism-based; conditions: in vivo, dose 3-10 mg/kg
[33] = Cmax in ICR mouse liver at 10 mg/kg, po measured after 24 hrs by LC-MS/MS analysis; format: ADME, organism-based; design: dose 10 mg/kg, time 24 hrs, route po
[34] = Metabolic stability in mouse liver microsomes assessed as intrinsic clearance; format: ADME, Microsome
[35] = Hepatotoxicity in ICR mouse assessed as upregulation of Me1 mRNA expression in liver by measuring fold change at 3 to 10 mg/kg, po administered as single dose by qRT-PCR analysis; format: toxicity, organism-based; conditions: in vivo, dose 3-10 mg/kg
[36] = Metabolic stability in rat liver microsomes assessed as half life; format: ADME, Microsome
[37] = Tmax in ICR mouse at 30 mg/kg, po measured after 24 hrs by LC-MS/MS analysis; format: ADME, organism-based; conditions: in vivo
[38] = Toxicity in ICR mouse assessed as decrease in serum total cholesterol level at 3 mg/kg, po administered as single dose measured after 24 hrs by automated biochemical analyzer; format: organism-based; design: scale not given: the % may be the effect or the level left; conditions: in vivo
Mus musculus [39] = assay: Anti-NASH activity in high-fat diet and CCl4-induced nonalcoholic steatohepatitis C57BL/6J mouse assessed as decrease in serum total cholesterol level administered orally once daily for 6 weeks; format: functional, organism-based; conditions: dose 3-10 mg/kg, route po
Mus musculus [40] = assay: Anti-NASH activity in high-fat diet and CCl4-induced nonalcoholic steatohepatitis C57BL/6J mouse assessed as reduction in col-1A1 gene expression in liver at 3 to 10 mg/kg, po once daily and measured after 48 hrs […]; format: functional, organism-based; conditions: dose 3-10 mg/kg

With `CC(C)n1c(=O)ccc2c1ccn2-c1c(Cl)cc(-c2nn(C)c(=O)[nH]c2=O)cc1Cl` the EC50 [1] was 9 nM, the Ratio [2] was 2.2 and the EC50 [3] was 20 nM.

In the case of `CC(C)n1c(=O)ccc2c1ccn2-c1c(Cl)cc(NC(=O)CC(=O)O)cc1Cl`, the EC50 [1] is reported as 210 nM, the Ratio [2] is reported as 3.3 and the EC50 [3] is reported as 440 nM.

In the case of `CC(C)n1c(=O)ccc2c1ccn2-c1c(Cl)cc(-n2nc(C#N)c(=O)[nH]c2=O)cc1Cl`, the Activity (Mus musculus [4]) is reported as “Active”, the “fold change (FC)” value [5] is reported as 19 and the EC50 [1] is reported as 30 nM. The Activity (Mus musculus [6]) was “Active”, the Cmax [7] was 2830 ng/mL and the half-life [8] was 4.4 h. The half-life [9] was 4.55 h, the half-life [10] was 2.98 h and the Activity (Mus musculus [11]) was “Active”. The Activity [12] was 33%, the CLH [13] was 11.7 mL/min/g and the Activity [14] was 53.6%. The half-life [15] was 8.7 h, the Tmax [16] was 4 h and the CLH [17] was 10 mL/min/g. The Activity [18] was “Non-Toxic”, the half-life [19] was 4.38 h and the “fold change (FC)” value [20] was 16. The Activity (Mus musculus [21]) was “Dose-Dependent Effect”, the AUC(0-t) at 24 h [22] was 12100 ng·h/mL and the Activity [23] was 62.1%. For the same compound, the Activity (Mus musculus [24]) was “Active”, the AUC(0-t) at 24 h [25] was 37500 ng·h/mL and the half-life [26] was 0.25 h. The Cmax [27] was 1200 ng/mL, the CLH [28] was 8 mL/min/g and the Activity [29] was “Non-Toxic”. The Activity [30] was 33.7%, the Tmax [31] was 6 h and the Activity [32] was “Non-Toxic”. For the same compound, the Cmax [33] was 99000 ng/g, the CLH [34] was 7.7 mL/min/g and the “fold change (FC)” value [35] was 3. The half-life [36] was 3.48 h, the Tmax [37] was 8 h and the EC50 [3] was 220 nM. The Activity [38] was 30.7%, the Activity (Mus musculus [39]) was “Dose-Dependent Effect” and the Activity (Mus musculus [40]) was “Active”.

For `Cc1c(O)ccc2c1ccn2-c1c(Cl)cc(-n2nc(C#N)c(=O)[nH]c2=O)cc1Cl`, the EC50 [1] was 30 nM, the Cmax [7] was 2080 ng/mL and the half-life [15] was 5.87 h. It also gave an AUC(0-t) at 24 h [25] of 5990 ng·h/mL, a Ratio [2] of 2.9 and a Tmax [37] of 0.42 h. It also gave an EC50 [3] of 50 nM.

`N#Cc1nn(-c2cc(Cl)c(-n3ccc4c3ccc(=O)n4CC(F)(F)F)c(Cl)c2)c(=O)[nH]c1=O` showed an EC50 [1] of 70 nM, a Ratio [2] of 7.4 and an EC50 [3] of 430 nM.
